The target of series [1] is T1, OATP1B1 (Homo sapiens, UniProt Q9Y6L6).
T1 sequence (Q9Y6L6 1-691): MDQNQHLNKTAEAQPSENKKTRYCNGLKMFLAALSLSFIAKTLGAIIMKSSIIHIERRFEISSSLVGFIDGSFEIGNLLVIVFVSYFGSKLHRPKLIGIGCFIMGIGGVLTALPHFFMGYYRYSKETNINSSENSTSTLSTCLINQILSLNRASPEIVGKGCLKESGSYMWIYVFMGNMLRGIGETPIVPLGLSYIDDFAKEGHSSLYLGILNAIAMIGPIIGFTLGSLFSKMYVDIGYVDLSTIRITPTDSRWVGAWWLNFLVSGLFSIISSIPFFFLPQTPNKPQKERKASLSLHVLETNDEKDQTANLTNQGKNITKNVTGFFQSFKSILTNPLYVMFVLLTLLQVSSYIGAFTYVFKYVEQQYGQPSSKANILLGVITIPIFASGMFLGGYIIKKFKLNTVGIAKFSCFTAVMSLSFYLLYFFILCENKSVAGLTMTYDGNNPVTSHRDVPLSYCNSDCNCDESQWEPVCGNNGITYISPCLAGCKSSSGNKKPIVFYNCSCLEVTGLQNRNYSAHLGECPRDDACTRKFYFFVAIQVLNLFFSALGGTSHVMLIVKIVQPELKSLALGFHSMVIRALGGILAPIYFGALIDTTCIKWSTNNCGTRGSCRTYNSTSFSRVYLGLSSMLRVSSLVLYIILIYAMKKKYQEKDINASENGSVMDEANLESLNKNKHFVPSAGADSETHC

Series [2] addresses P-gp (Homo sapiens, UniProt P08183). Briefly: Transporter substrate evaluation, MDCKII-P-gp cells. The class given is in vitro ADME. Further details: expressed in transfected cells; host or cells: MDCKII (Madin-Darby canine kidney) cells.
The nature of series [3]: In vitro metabolism studies and human mass balance clinical study. Format: in vivo. The note with it: oxidative (CYP2C8, CYP2C9) and conjugation (UGT1A7, minor UGT1A1, UGT1A4) pathways. From the text:
Compound 1 is eliminated from the systemic circulation mainly due to metabolism and biliary/fecal excretion.

The target in series [4] is T2, BSEP (Homo sapiens, UniProt O95342).
T2 construct: host or cells: membrane vesicles
Description: Transporter inhibition, vesicular transport assay. The class given is in vitro ADME.

Series [5] deals with CYP enzymes. Description: Metabolism-dependent inhibition of CYP enzymes in human liver microsomes. The class given is in vitro ADME. The conditions noted are these: 30 min preincubation with NADPH-regenerating system. From the text: Known metabolism-dependent and/or direct inhibitors of CYP and UGT enzymes were included as positive controls, as applicable.
Series [6] addresses T3, OATP1B3 (Homo sapiens, UniProt Q9NPD5).
T3 construct: expressed in transfected cells; host or cells: HEK293
T3 sequence (Q9NPD5 1-702): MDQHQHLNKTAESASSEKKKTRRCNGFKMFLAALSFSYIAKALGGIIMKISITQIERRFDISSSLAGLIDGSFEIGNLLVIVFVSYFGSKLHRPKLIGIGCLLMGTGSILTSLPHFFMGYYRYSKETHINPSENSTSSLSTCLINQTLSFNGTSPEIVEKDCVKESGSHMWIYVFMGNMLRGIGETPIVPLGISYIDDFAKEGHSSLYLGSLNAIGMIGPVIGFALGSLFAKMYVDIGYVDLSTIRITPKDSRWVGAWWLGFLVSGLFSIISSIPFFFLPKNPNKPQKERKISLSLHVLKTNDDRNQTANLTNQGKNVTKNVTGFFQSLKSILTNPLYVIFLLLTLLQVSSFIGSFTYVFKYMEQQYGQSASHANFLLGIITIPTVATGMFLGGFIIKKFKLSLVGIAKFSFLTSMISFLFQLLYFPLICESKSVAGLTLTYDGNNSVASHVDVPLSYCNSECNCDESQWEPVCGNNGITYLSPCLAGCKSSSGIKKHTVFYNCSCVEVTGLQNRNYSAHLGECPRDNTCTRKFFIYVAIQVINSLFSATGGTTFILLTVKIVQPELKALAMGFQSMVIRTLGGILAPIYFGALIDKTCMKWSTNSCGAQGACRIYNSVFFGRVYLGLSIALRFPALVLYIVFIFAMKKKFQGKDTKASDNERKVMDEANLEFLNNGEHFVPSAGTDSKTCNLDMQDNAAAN
Briefly: Transporter inhibition, HEK293 cells. The class given is in vitro ADME.

Series [7] concerns the target T4, OAT3 (Homo sapiens, UniProt Q8TCC7).
T4 construct: expressed in transfected cells; host or cells: HEK293
T4 sequence (Q8TCC7 1-542): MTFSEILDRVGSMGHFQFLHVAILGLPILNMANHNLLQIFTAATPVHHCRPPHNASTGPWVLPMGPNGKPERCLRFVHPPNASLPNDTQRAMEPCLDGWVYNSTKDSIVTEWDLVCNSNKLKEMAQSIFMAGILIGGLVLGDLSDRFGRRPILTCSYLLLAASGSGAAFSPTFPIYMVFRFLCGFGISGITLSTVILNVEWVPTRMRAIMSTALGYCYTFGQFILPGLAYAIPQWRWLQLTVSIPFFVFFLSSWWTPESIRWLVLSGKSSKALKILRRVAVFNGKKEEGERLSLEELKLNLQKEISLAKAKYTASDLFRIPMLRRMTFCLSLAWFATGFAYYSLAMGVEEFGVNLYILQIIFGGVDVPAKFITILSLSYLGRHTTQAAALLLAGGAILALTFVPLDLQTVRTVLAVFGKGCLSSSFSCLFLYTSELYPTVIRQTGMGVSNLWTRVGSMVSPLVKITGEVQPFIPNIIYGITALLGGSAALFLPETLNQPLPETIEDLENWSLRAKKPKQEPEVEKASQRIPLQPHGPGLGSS
Description: Transporter substrate evaluation, HEK293 cells. Format: in vitro ADME. The note with it: 1 and 10 μM.

We go through one compound from patent US20210228545A1, “METHODS OF TREATING CONDITIONS RELATED TO THE S1P1 RECEPTOR” (Arena Pharmaceuticals, Inc., priority 2018, published 2021).

Sequence of P-gp (P08183 whole entry): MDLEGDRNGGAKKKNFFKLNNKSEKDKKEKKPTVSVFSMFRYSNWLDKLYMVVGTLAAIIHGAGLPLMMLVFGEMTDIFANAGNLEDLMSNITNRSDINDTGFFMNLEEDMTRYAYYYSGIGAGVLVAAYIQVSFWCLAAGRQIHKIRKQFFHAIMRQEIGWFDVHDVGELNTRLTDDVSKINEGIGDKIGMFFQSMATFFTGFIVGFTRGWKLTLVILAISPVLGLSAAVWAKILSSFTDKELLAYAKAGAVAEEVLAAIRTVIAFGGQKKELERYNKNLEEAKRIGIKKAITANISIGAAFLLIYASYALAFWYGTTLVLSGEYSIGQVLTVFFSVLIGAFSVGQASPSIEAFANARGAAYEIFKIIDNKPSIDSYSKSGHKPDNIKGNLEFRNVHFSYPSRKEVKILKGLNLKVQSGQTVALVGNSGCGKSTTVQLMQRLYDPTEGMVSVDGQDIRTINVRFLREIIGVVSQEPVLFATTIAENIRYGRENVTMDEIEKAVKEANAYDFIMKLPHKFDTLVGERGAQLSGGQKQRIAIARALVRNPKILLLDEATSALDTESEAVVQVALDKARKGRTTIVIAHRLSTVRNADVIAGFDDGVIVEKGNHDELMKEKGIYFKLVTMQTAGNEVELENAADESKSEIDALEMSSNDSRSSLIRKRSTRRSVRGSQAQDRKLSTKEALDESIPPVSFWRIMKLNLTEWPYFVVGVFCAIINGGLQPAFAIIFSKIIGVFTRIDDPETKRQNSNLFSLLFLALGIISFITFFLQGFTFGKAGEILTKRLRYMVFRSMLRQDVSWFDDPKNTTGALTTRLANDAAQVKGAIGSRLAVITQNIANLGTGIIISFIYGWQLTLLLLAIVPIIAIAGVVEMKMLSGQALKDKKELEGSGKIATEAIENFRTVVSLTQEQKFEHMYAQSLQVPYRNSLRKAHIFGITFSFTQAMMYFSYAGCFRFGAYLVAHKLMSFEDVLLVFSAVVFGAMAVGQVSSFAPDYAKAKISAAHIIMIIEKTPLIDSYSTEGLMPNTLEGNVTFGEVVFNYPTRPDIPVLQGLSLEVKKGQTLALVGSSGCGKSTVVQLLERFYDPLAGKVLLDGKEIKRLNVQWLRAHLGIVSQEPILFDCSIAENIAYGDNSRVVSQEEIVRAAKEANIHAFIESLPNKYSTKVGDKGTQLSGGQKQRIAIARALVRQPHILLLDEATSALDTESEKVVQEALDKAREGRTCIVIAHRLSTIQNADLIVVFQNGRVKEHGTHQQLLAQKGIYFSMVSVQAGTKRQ
T2 sequence (O95342 whole entry): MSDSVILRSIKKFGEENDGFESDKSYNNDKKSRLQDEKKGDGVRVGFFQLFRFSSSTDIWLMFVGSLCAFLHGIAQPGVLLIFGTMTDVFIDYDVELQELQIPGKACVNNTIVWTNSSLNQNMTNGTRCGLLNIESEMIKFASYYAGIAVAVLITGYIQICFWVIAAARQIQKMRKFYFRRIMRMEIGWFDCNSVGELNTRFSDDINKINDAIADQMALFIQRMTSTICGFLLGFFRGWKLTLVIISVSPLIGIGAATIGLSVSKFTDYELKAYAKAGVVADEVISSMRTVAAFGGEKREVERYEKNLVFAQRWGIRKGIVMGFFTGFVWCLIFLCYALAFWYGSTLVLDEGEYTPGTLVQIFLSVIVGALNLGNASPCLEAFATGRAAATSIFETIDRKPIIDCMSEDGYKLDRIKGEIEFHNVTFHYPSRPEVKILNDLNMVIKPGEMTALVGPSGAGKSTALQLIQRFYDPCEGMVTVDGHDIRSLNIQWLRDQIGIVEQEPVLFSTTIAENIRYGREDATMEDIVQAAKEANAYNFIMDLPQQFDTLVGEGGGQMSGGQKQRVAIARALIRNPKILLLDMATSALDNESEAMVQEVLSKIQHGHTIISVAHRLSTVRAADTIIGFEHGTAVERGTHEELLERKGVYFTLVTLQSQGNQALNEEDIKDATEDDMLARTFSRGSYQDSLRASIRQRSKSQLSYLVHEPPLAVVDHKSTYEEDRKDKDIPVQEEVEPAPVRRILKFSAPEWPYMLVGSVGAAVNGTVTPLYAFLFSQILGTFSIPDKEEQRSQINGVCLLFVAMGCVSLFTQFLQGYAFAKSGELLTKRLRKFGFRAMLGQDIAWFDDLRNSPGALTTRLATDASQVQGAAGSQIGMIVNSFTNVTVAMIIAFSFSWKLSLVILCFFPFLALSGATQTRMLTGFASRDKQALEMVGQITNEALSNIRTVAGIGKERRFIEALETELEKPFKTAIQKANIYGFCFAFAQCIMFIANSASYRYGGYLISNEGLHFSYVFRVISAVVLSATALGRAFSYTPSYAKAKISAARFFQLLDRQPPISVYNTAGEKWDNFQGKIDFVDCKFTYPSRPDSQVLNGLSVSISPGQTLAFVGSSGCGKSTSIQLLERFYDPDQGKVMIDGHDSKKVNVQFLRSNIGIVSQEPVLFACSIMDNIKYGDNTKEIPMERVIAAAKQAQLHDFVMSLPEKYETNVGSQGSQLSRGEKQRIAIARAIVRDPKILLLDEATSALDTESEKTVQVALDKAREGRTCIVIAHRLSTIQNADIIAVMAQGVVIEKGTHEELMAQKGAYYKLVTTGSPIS

For `O=C(O)C[C@H]1CCc2c1[nH]c1ccc(OCc3ccc(C4CCCC4)c(C(F)(F)F)c3)cc21` [Compound 1, (R)-2-(7-(4-cyclopentyl-3-(trifluoromethyl)benzyloxy)-1,2,3,4-tetrahydrocyclopenta[b]indol-3-yl)acetic acid], the IC50 (in general, the concentration that inhibits the measured activity by half) was approximately 10 µM in series [1]; more than 10 µM in series [4] (vesicles, [3H]-taurocholic acid (0.4 μM), 1 and 10 μM tested); more than 10 µM in series [6] (HEK293 cells, [3H]-estradiol-17β-glucuronide (50 nM), 1 and 10 μM tested). Moreover, the efflux ratio (usually a quotient of directional permeabilities that is used to spot active efflux) at 1 μM in series [2] (MDCK-MDR1, 1 μM) amounted to 1.12. Also, the efflux ratio at 10 μM in series [2] (MDCK-MDR1, 10 μM) came to 3.17. The compound further came in with a recovery in series [2] (MDCK-MDR1, MDCKII-P-gp assay) of 18 to 60%. Moreover, the “Extent of metabolism (overall)” value in series [3] is given as more than 25%. For the same compound, the “Reduction of ATP-dependent uptake of [3H]-taurocholic acid in BSEP-expressing vesicles (inhibition)” value in series [4] (1 and 10 μM) is recorded as “less than 50%”. Further, the “Metabolism-dependent inhibition of CYPs” value in series [5] was “little or no evidence of metabolism-dependent inhibition”. The “Reduction of uptake rate of estradiol-17β-glucuronide into OATP1B3-expressing cells (inhibition)” value in series [6] (1 and 10 μM) was “less than 50%”. Besides, the “Potential substrate of OAT3” value in series [7] (HEK293 cells) is “not a substrate of OAT3 and not a substrate and No”. The “Uptake ratio into OAT3-expressing cells” value in series [7] (absence and presence of probenecid (100 μM)) is “below two”.
